Paper PMC6481345, “A novel anti-melanoma SRC-family kinase inhibitor” (Oncotarget, 2019)

Legend:
pY467/199 PIK3R1/3 = test: Western blot, phospho-Y467/199 PIK3R1/3; format: cell-based, human; conditions: melanoma cell lines; 0.5 µM, 5 hrs
Method: We used standard techniques to identify changes in intracellular signaling in response to various treatments. Briefly, melanoma cells were incubated with test compounds, using DMSO as a control, collected by scraping on ice, and lysed in RIPA buffer supplemented with protease and phosphatase inhibitors (MA #78428, and #78425, respectively, Thermo Fisher Scientific, Waltham, MA). Protein concentrations were measured with the BioRad kit (Bio-Rad Laboratories, Hercules, CA), SDS sample buffer was added, extracts were heated at 95°C, sonicated and centrifuged. Cell extracts (20 µg/lane) were fractionated in 3%–8% or 4–12 % tris-acetate gel (NP0006, NuPAGE Life Technologies). […]

YES1 = YES1 (Homo sapiens, UniProt P07947); test: KiNativ in situ kinase profiling in melanoma cell lysates; format: binding; set-up: the endogenous kinome response to SAB298 (0.05 µM, 0.5 µM and 5 µM) in lysates from two melanoma cell lines; host or cells: YUSIV melanoma cell lysate (not present in YUSIK); conditions: YES1 in YUSIV lysate; 3-point dose response
Method: The effect of SAB298 on a panel of 36 recombinant kinases, was screed with the radioisotope filter binding assay employing 10 concentrations of the compound with 10 µM ATP (Reaction Biology Corporation, Malvern, PA). In addition, we tested the endogenous kinome response to SAB298 (0.05 µM, 0.5 µM and 5 µM) in lysates from two melanoma cell lines (YUSIV and YUSIK) employing the KiNativ® platform (ActivX Biosciences Inc., La Jolla, CA). KiNativ® is a robust, high performance mass spectrometry (LC-MS^2) assay that uses biotinylated probes to measure relevant changes in the affinity to the ATP-binding sites of 205 native kinases as a function of cellular context. We also validated SAB298 effect on the activity of SRC-family kinases by probing for phosphorylated Y416, the marker of activated SFKs, with anti-IEDNEpYTAR antibodies (also known as Y419, #2101, Cell Signaling Technology, Beverly, MA). In some cases the cells were incubated overnight with 20 µM proteasome inhibitor MG-132 (CAS 133407-82-6, Millipore Sigma, Burlington, MA) to rescue degradation.

Chain of YES1 (P07947 whole entry): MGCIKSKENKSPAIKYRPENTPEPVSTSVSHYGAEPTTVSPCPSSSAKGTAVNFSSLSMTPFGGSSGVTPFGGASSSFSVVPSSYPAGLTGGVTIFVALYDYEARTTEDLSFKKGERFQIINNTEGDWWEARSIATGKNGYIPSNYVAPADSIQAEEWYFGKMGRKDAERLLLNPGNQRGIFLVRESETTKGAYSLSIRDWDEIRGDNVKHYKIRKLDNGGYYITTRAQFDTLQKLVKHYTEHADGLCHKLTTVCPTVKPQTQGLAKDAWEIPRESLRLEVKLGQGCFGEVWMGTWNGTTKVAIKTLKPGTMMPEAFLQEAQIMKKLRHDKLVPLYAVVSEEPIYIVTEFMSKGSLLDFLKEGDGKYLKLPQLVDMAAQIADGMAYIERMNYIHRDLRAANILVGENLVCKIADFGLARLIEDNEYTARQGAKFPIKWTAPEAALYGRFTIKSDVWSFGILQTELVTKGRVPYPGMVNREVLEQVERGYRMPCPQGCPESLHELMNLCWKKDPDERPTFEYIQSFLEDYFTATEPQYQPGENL

Nc1ncnc2c1c(-c1ccc(Oc3ccccc3)cc1)nn2C[C@@H]1SSC[C@@H]1O [SAB298, (3S, 4S)-3-((4-amino-3-(4-phenoxyphenyl)-1H-pyrazolo[3,4-d]pyrimidin-1-yl)methyl)-1,2-dithiolan-4-ol]
phospho-Y467/199 PIK3R1/3 level (pY467/199 PIK3R1/3): suppressed PI3K
IC50 (YES1): < 10 nM
